Source: US9163044B2, “Carbon monoxide releasing molecules and uses thereof” (Alfama, Inc., priority 2011, dated 2015)
Entries after “also recorded” stand apart in the source; their conditions may differ.

How the values were obtained:
[1] = system: APAP-induced acute liver failure (ALF) model; assay: APAP-induced acute liver failure (ALF) model, sublethal (300 mg/kg APAP i.p.); format: in vivo, C57Bl/6 male mice; conditions: for therapeutic activity in acetaminophen induced ALF (in words): mouse, in vivo; for % ALT increase relative to increase with APAP alone Experiment 1 / % ALT increase relative to increase with APAP alone Experiment 2 / Measured ALT values (mean ± S.D.) Experiment 1 / Measured ALT values (mean ± S.D.) Experiment 2: alone or plus NAC (300 mg/kg), at 1 h and 3 h post APAP; for Measured ALT values (mean ± S.D.) Experiment 1 / Measured ALT values (mean ± S.D.) Experiment 2: serum 22 h
Procedure: Compound 3b was studied in a sublethal model for acetaminophen (APAP)-induced Liver Injury.
ALF was induced in C57Bl/6 male mice with a single dose of acetaminophen (300 mg/kg) by i.p. injection. […] Serum alanine aminotransferase (ALT) was measured 22 h after APAP injection (n=5 mice for each group). […] ALF was induced in C57Bl/6 male mice with a single dose of acetaminophen (300 mg/kg) by i.p. injection. […] Twenty-two hours after APAP injection serum ALT was measured (indicated in FIG. 11A), centrilobular sections of mouse livers were cut and stained with hematoxylin and eosin, and the percentage of liver necrosis was determined. The data indicates a dose-dependent reduction of ALT levels of 9% to 83% relative to APAP control, and a dose-dependent reduction of necrosis of 0% to 56% relative to APAP control.
ALF was induced in C57Bl/6 male mice with a single dose of acetaminophen (300 mg/kg) by i.p. injection. […] Alanine aminotransferase (ALT) was measured 22 h after APAP injection (n=4 or n=5 mice for each group).
ALF was induced in C57Bl/6 male mice with a single dose of acetaminophen (300 mg/kg) by i.p. injection. […] Twenty-two hours after APAP injection, serum ALT was measured (indicated in FIGS. 12A-12B), centrilobular sections of mouse livers were cut and stained with hematoxylin and eosin, and the percentage of liver necrosis was determined.
ALF was induced in C57Bl/6 male mice with a single dose of acetaminophen (300 mg/kg) by i.p. injection.
FIG. 14 depicts the effect of late treatment with Compound 3b on serum ALT in ALF model. ALF was induced in C57Bl/6 male mice with a single dose of acetaminophen (300 mg/kg) by i.p. injection. At sixteen hours after APAP injection, the animals were treated with different doses of Compound 3b (0.3, 3, 30 or 60 mg/kg). Alanine aminotransferase (ALT) was measured 22 h after APAP injection (n=4 or n=5 mice for each group).
ALF was induced in C57Bl/6 male mice with a single dose of acetaminophen (300 mg/kg) by i.p. injection. […] Experiments 1 and 2 represent two independent experiments. Alanine aminotransferase (ALT) was measured 22 h after APAP injection (n=4 or n=5 mice for each group). The ALT levels and the respective percentage of ALT increase, relative to the increase observed in mice injected with APAP alone, are presented in Table 7.
ALF was induced in C57Bl/6 male mice with a single dose of acetaminophen (300 mg/kg) by i.p. injection. […] Twenty-two hours after APAP injection, serum ALT was measured and centrilobular sections of mouse livers were cut and stained with hematoxylin and eosin.

[2] = CO release kinetics in the presence of rat liver microsomes, K-phosphate buffer (pH 7.4); format: in vitro ADME; conditions: for effect of liver microsomes on CO release / decay (in words): compared with incubation without microsomes; for CO eq. released in 1 h, Microsomes K-phosphate buffer (pH 7.4): with microsomes, 10 μM, 37° C., dark
Procedure: General Method for the CO Release in the Presence of Liver Microsomes
The CO release kinetics of Compounds 1b, 2b, 3b, 4b, and 5b were also evaluated in the presence of rat or human liver microsomes. In a 8-mL vial, the following reagents were combined:
200 μL of 0.5 M potassium phosphate buffer, pH 7.4
50 μL of NADPH regenerating system solution A (BD, Cat. No. 451220)
10 μL of NADPH regenerating system solution B (BD, Cat. No. 451200)
2 μL of 5 mM solution of the compound in DMSO (10 μM final concentration)
The vials were closed and after mixing, the samples were warmed to 37° C. for 5 minutes before an aliquot (25 μL, 0.5 mg protein content) of rat liver microsomes (BD, Cat. No. 452511) or human liver microsomes (BD, Cat. No. 452161) was added to each vial. In parallel analogous vials with all the reagents except the microsomes were prepared. Due to the light-sensitivity of the molybdenum compounds, the reactions were performed in the dark. The samples were incubated at 37° C. and gas samples of the headspace (from 100 μL to 500 μL) of the vials were removed with a gas-tight syringe after 5, 10, 15, 30, and 60 minutes (in some cases samples were also taken at 1, 2, 3 or 4 minutes) upon microsomes addition. The gas samples were then injected into empty sealed vials (8 mL volume) and the amount of CO present in the vials was measured using GC-RCP.
The CO equivalents released at each time point from each compound were determined by the following equation: (CO released (pmol)×number of CO ligands in the molecule)/([CO] in the compound (pmol)). A 1 mL solution of a tri-carbonyl compound, at 50 μM concentration contains a total of 150,000 pmol of CO.

Compound | therapeutic activity in acetaminophen induced ALF (in words) [1] | effect of liver microsomes on CO release / decay (in words) [2] | CO eq. released in 1 h, Microsomes K-phosphate buffer (pH 7.4) [2] | effect of a single dose administered 16 hours after APAP injury (in words) ([1]; 0.3, 3, 30 or 60 mg/kg at 16 h, ALT 22 h after APAP) | therapeutic effect, 2 doses given at 1 h and 3 h after APAP (in words) ([1]; 2×60 and 2×120 mg/kg, NAC 2×300 mg/kg, evaluated 22 h post APAP) | % ALT increase relative to increase with APAP alone Experiment 1 ([1]; 3b 2 × 60 mg/kg) [%] | % ALT increase relative to increase with APAP alone Experiment 2 ([1]; 3b 2 × 60 mg/kg) [%] | Measured ALT values (mean ± S.D.) Experiment 1 ([1]; 3b 2 × 60 mg/kg) [U/L] | Measured ALT values (mean ± S.D.) Experiment 2 ([1]; 3b 2 × 60 mg/kg) [U/L] | % ALT increase relative to increase with APAP alone Experiment 1 ([1]; 3b 2 × 120 mg/kg) [%] | % ALT increase relative to increase with APAP alone Experiment 2 ([1]; 3b 2 × 120 mg/kg) [%] | Measured ALT values (mean ± S.D.) Experiment 1 ([1]; 3b 2 × 120 mg/kg) [U/L] | Measured ALT values (mean ± S.D.) Experiment 2 ([1]; 3b 2 × 120 mg/kg) [U/L] | liver histology: necrosis (in words) ([1]; Compound 3b 2×100 or 2×300 mg/kg, NAC 2×300 mg/kg, at one and three hours after APAP, 22 h) | effect on serum ALT when given late after APAP injury (in words) ([1]; five hours and seven hours after APAP, NAC 150 mg/kg, Compound 3b 120 mg/kg) | initial CO release rate, presence versus absence of microsomes ([2]; ratio with/without microsomes) | reduction of necrosis relative to APAP control (in words) ([1]; 60 mg/kg, 1 h after APAP)
CC([N+]#[C][Mo-6]([C]#[O+])([C]#[O+])([C]#[O+])([C]#[N+]C(C)C(=O)O)[C]#[N+]C(C)C(=O)O)C(=O)O (centres unmarked) [Compound 2b, tricarbonyl[tris(2-isocyanopropionic acid)]Mo(0)] | still retains therapeutic activity although lower than that of Compound 3b | accelerated the decay | (0.9CO eq. in 1 h) | – | – | – | – | – | – | – | – | – | – | – | – | – | –
[C-]#[N+]C(C)(C)C(=O)O.[C-]#[N+]C(C)(C)C(=O)O.[C-]#[N+]C(C)(C)C(=O)O.[C-]#[O+].[C-]#[O+].[C-]#[O+].[Mo] [Compound 3b, tricarbonyl[tris(2-isocyano-2-methyl-propionic acid)]Mo(0)] | strong therapeutic activity | increased rate of CO release | (1.5CO eq. in 1 h) | dose-dependent therapeutic effect | highly therapeutic; also recorded: as effective as NAC | 57.2 ± 14.5 | 45.0 ± 8.1 | 5180 ± 1312 | 5500 ± 987 | 49.5 ± 7.0 | 35.7 ± 7.6 | 4480 ± 630 | 4360 ± 926 | very little if any necrosis | therapeutic | approximately 4 times faster | –
tricarbonyl[tris(isocyanoacetic acid)]Mo(0) [Compound 1b] | lack of activity | increased rate of CO release | (1.1CO eq. in 1 h) | – | – | – | – | – | – | – | – | – | – | – | – | – | does not reduce necrosis
